{"source": "patent US6638938B1", "about": "“Method for preventing tissue injury from hypoxia” (Cell Therapeutics, Inc., priority 1993, dated 2003)", "tested_on": "LPAAT (lysophosphatidic acyltransferase)", "experiment": "inhibition of LPAAT activity", "format": "biochemical", "conditions": "extremely weak inhibitor; above clinically achievable concentrations", "data": [{"molecule": "CC(=O)CCCCn1c(=O)c2c(ncn2C)n(C)c1=O", "note": "[pentoxifylline, 1-(5-oxohexyl)3,7-dimethylxanthine, reference compound]", "values": [{"measurement": "concentration required for inhibition of LPAAT activity", "value": "> 1", "unit": "mM"}]}]}
